# Laboratory results reported in patent publication US20220128542A1, “TREATMENT EFFICIENCY EVALUATION” (TX MEDIC AB, priority 2019, published 2022).
# Test system: Human Schwann cells
# Assay: Gene expression array and pathway/upstream regulator analysis in Schwann cells (Example 2)
# Format: cell-based
# Conditions: 0.01 mg/ml
# Protocol: For each cell line, n=8×25 cm^2 culture flasks were set up. Two flasks were harvested for each cell type on the day of treatment (24 hours after seeding). This represents the Day0 time point. From the remaining flasks, three flasks were treated with Control Medium and three were treated with Culture Medium (CM) containing LMW-DS to give a final concentration of 0.01 mg/ml. Cells from the treated flasks were collected after 48 hours. Therefore the collected data represent (a) untreated cells (Day0 Controls and Day2 Controls) and (b) cells treated with LMW-DS for 48 hours (Day2 LMW-DS treated).
# 25 cm^2 flasks were coated by adding 2 ml per flask of a solution of 50 μg/ml poly-d-lysine in Hank's balanced salt solution (HBSS) and incubating overnight at 37° C. in the dark. Flasks were washed with cell culture water and air-dried for 30 min in the dark. Flasks were coated by adding 1 ml per flask of a solution of 25 μg/ml laminin in phosphate-buffered saline (PBS) and incubating for 2 hour at 37° C. in the dark. The laminin flasks were washed with PBS three times before plating cells.
# Schwann cells growth medium was prepared by adding 10% of fetal bovine serum (FBS) to high-glucose DMEM and pre-warmed to 37° C. Cells were thawed in a 37° C. water bath for no longer than 2 min.
# Cells from 12 vials were each gently transferred to a tube containing 10 ml of high-glucose DMEM medium and centrifuged at 400 relative centrifugal field (RCF) for 10 min. Pellet was re-suspended in culture medium. The cells from the 12 vials were mixed and distributed equally into the previously coated 25 cm^2 flasks (n=8). Cells were incubated at 37° C. with 5% CO2. Cells were allowed to settle for 24 hours before LMW-DS treatment.
# A fresh 100× LMW-DS stock (1.0 mg/ml) was prepared in sterile DMEM-F12. The concentrated drug stock was sterile filtered and added to the respective culture media (19.6 ml CM and 0.4 ml LMW-DS stock solution). The Control was made using 19.6 ml CM and 0.4 ml of DMEM-F12. LMW-DS and CM were added to the respective flasks (5 ml each) to reach the 0.01 mg/ml concentration of LMW-DS in each dish with a total of 10 ml CM each.
# CM was aspirated into a clean and labelled 15 ml Falcon tube. The flasks (without culture medium) were placed into the −80° C. freezer for 30 minutes. The CM in the Falcon tubes was spun at 3000×g for 5 minutes. Supernatant was removed and the small pellet was re-suspended in 2.5 ml Trizol:Water (4:1) solution at room temperature (RT, ˜22° C.).
# The frozen flasks were removed one-by one from the freezer and the Trizol-Water from the appropriate tubes was moved to the flask. Flasks were left at RT for 5 minutes before the content was aspirated back into the 15 ml Falcon tube (after washing the bottom of the flask with the solution thoroughly). The flasks were inspected under the microscope to ensure full removal of cells. The collected lysates in the 15 ml Falcon tubes were placed into the −80° C. freezer.
# Falcon tubes containing the homogenates were removed from the freezer and stored for 5 minutes at RT to permit the complete dissociation of nucleoprotein complexes.
# Two aliquots of 1 ml lysate were removed from each sample and 200 μl of chloroform was added to each (0.2 ml of chloroform per 1 ml of TRIzol Reagent used during the cell lysis step) and the tube was shaken vigorously. Samples were stored at RT for 2-3 minutes and subsequently centrifuged at 12,000×g for 15 minutes at 4° C.
# The mixture separated into three layers: a lower red phenol-chloroform phase, an interphase and a colorless upper aqueous phase. The RNA remained in the top aqueous phase, DNA in the white middle (interphase) phase and protein in the pink bottom (organic) phase. The top ¾ of the aqueous phase was transferred to a new clean Eppendorf tube.
# The RNA was precipitated from the aqueous phase by adding an equal amount of 100% ethanol. The precipitated RNA was fixed onto a Spin Cartridge, washed twice and dried. […]
substance,measurement,setting,value
sodium salt of dextran sulfate [LMW-DS],number of genes: no effect / abolished nutrient effect,48 hours,21
same,number of genes: no effect / total,48 hours,21
same,number of genes: significant downregulation / abolished nutrient effect,48 hours,1
same,number of genes: significant downregulation / enhanced response to nutrients,48 hours,122
same,number of genes: significant downregulation / new effect induced by LMW-DS,48 hours,352
same,number of genes: significant downregulation / not different from control,48 hours,42
same,number of genes: significant downregulation / total,48 hours,517
same,number of genes: significant upregulation / abolished nutrient effect,48 hours,13
same,number of genes: significant upregulation / enhanced response to nutrients,48 hours,441
same,number of genes: significant upregulation / new effect induced by LMW-DS,48 hours,74
same,number of genes: significant upregulation / not different from control,48 hours,373
same,number of genes: significant upregulation / total,48 hours,901
same,number of genes: total / abolished nutrient effect,48 hours,35
same,number of genes: total / enhanced response to nutrients,48 hours,563
same,number of genes: total / new effect induced by LMW-DS,48 hours,426
same,number of genes: total / not different from control,48 hours,415
same,number of genes: total / total,48 hours,1439
same,differentially expressed genes,D0 control vs D2 LMW-DS treated,1244 genes
same,differentially expressed genes,D2 control vs D2 LMW-DS treated,700 genes
